This is an account of results in PubChem BioAssay AID1745844 (Carcinogenic Potency Database (CPDB), 2022).

Each structure is given as a SMILES string. Activity calls are given as the source filed them. No rule for the calls is given here.

The TD50 is the dose at which the toxic effect under study appears in half of the subjects.

This data set has as its system rodent lifetime carcinogenesis bioassay, tumor incidence TD50. Nature of the data set: carcinogenic potency in animals, long-term in vivo studies, CPDB compilation (AID 1745844).

Take `O=P(O)(OCC(Br)CBr)OCC(Br)CBr` (configuration not stated): the TD50 is 107 mg/kg/day (rat, strain Wistar, females, in feed, site: esophagus, lesion: squamous-cell papilloma, dosed 78 weeks, study length 78 weeks); 394 mg/kg/day (rat, strain Wistar, females, in feed, site: esophagus, lesion: squamous-cell papilloma, dosed 96 weeks, study length 101 weeks); 19.6 mg/kg/day (rat, strain Wistar, females, in feed, site: forestomach, lesion: several types, types named in the paper, dosed 78 weeks, study length 78 weeks); 40 mg/kg/day (rat, strain Wistar, females, in feed, site: forestomach, lesion: several types, types named in the paper, dosed 96 weeks, study length 101 weeks); 171 mg/kg/day (rat, strain Wistar, females, in feed, site: forestomach, lesion: squamous-cell carcinoma, dosed 78 weeks, study length 78 weeks); 301 mg/kg/day (rat, strain Wistar, females, in feed, site: forestomach, lesion: squamous-cell carcinoma, dosed 96 weeks, study length 101 weeks). The TD50 (rat, strain Wistar, females, in feed, site: forestomach, lesion: squamous-cell papilloma, dosed 52 weeks, study length 52 weeks) is 47.6 mg/kg/day; the TD50 (rat, strain Wistar, females, in feed, site: forestomach, lesion: squamous-cell papilloma, dosed 78 weeks, study length 78 weeks) worked out at 34.5 mg/kg/day; the TD50 (rat, strain Wistar, females, in feed, site: forestomach, lesion: squamous-cell papilloma, dosed 96 weeks, study length 101 weeks) is 60.3 mg/kg/day; the TD50 (rat, strain Wistar, females, in feed, site: kidney, lesion: renal-cell adenoma, dosed 96 weeks, study length 101 weeks) is 1250 mg/kg/day; the TD50 (rat, strain Wistar, females, in feed, site: kidney, lesion: renal-cell carcinoma, dosed 96 weeks, study length 101 weeks) is 1250 mg/kg/day; the TD50 (rat, strain Wistar, females, in feed, site: kidney, lesion: several types, types named in the paper, dosed 96 weeks, study length 101 weeks) came out at 608 mg/kg/day. Also, the TD50 (rat, strain Wistar, females, in feed, site: liver, lesion: hepatocellular adenoma, dosed 52 weeks, study length 52 weeks) came out at 33.2 mg/kg/day; the TD50 (rat, strain Wistar, females, in feed, site: liver, lesion: hepatocellular adenoma, dosed 78 weeks, study length 78 weeks) was determined as 20.6 mg/kg/day; the TD50 (rat, strain Wistar, females, in feed, site: liver, lesion: hepatocellular carcinoma, dosed 52 weeks, study length 52 weeks) worked out at 35.1 mg/kg/day; the TD50 (rat, strain Wistar, females, in feed, site: liver, lesion: hepatocellular carcinoma, dosed 78 weeks, study length 78 weeks) was determined as 20.1 mg/kg/day; the TD50 (rat, strain Wistar, females, in feed, site: liver, lesion: hepatocellular carcinoma, dosed 96 weeks, study length 101 weeks) is 37.1 mg/kg/day; the TD50 (rat, strain Wistar, females, in feed, site: liver, lesion: several types, types named in the paper, dosed 52 weeks, study length 52 weeks) was 11.8 mg/kg/day. The TD50 is, setting by setting: (rat, strain Wistar, females, in feed, site: liver, lesion: several types, types named in the paper, dosed 78 weeks, study length 78 weeks) 11.9 mg/kg/day; (rat, strain Wistar, females, in feed, site: liver, lesion: several types, types named in the paper, dosed 96 weeks, study length 101 weeks) 27.8 mg/kg/day; (rat, strain Wistar, females, in feed, site: small intestine, lesion: adenocarcinoma, dosed 78 weeks, study length 78 weeks) 107 mg/kg/day; (rat, strain Wistar, females, in feed, site: small intestine, lesion: adenocarcinoma, dosed 96 weeks, study length 101 weeks) 179 mg/kg/day; (rat, strain Wistar, females, in feed, site: tongue, lesion: several types, types named in the paper, dosed 96 weeks, study length 101 weeks) 301 mg/kg/day; (rat, strain Wistar, females, in feed, site: tongue, lesion: squamous-cell papilloma, dosed 78 weeks, study length 78 weeks) 107 mg/kg/day. Moreover, the TD50 is 403 mg/kg/day (rat, strain Wistar, females, in feed, site: tongue, lesion: squamous-cell papilloma, dosed 96 weeks, study length 101 weeks); 45.1 mg/kg/day (rat, strain Wistar, males, in feed, site: esophagus, lesion: several types, types named in the paper, dosed 90 weeks, study length 102 weeks); 16.5 mg/kg/day (rat, strain Wistar, males, in feed, site: esophagus, lesion: squamous-cell papilloma, dosed 78 weeks, study length 78 weeks); 62.1 mg/kg/day (rat, strain Wistar, males, in feed, site: esophagus, lesion: squamous-cell papilloma, dosed 90 weeks, study length 102 weeks); 38.1 mg/kg/day (rat, strain Wistar, males, in feed, site: forestomach, lesion: several types, types named in the paper, dosed 52 weeks, study length 52 weeks); 37.8 mg/kg/day (rat, strain Wistar, males, in feed, site: forestomach, lesion: several types, types named in the paper, dosed 90 weeks, study length 102 weeks). The TD50 reads like this: (rat, strain Wistar, males, in feed, site: forestomach, lesion: squamous-cell carcinoma, dosed 52 weeks, study length 52 weeks) 129 mg/kg/day; (rat, strain Wistar, males, in feed, site: forestomach, lesion: squamous-cell carcinoma, dosed 90 weeks, study length 102 weeks) 979 mg/kg/day; (rat, strain Wistar, males, in feed, site: forestomach, lesion: squamous-cell papilloma, dosed 52 weeks, study length 52 weeks) 60.9 mg/kg/day; (rat, strain Wistar, males, in feed, site: forestomach, lesion: squamous-cell papilloma, dosed 78 weeks, study length 78 weeks) 56.1 mg/kg/day; (rat, strain Wistar, males, in feed, site: forestomach, lesion: squamous-cell papilloma, dosed 90 weeks, study length 102 weeks) 43.5 mg/kg/day; (rat, strain Wistar, males, in feed, site: kidney, lesion: renal-cell adenoma, dosed 78 weeks, study length 78 weeks) 56.1 mg/kg/day. This molecule returned a TD50 (rat, strain Wistar, males, in feed, site: kidney, lesion: renal-cell adenoma, dosed 90 weeks, study length 102 weeks) of 45.1 mg/kg/day; a TD50 (rat, strain Wistar, males, in feed, site: kidney, lesion: renal-cell carcinoma, dosed 52 weeks, study length 52 weeks) of 129 mg/kg/day; a TD50 (rat, strain Wistar, males, in feed, site: kidney, lesion: several types, types named in the paper, dosed 90 weeks, study length 102 weeks) of 35 mg/kg/day; a TD50 (rat, strain Wistar, males, in feed, site: liver, lesion: hepatocellular adenoma, dosed 78 weeks, study length 78 weeks) of 28.3 mg/kg/day; a TD50 (rat, strain Wistar, males, in feed, site: liver, lesion: hepatocellular carcinoma, dosed 52 weeks, study length 52 weeks) of 129 mg/kg/day; a TD50 (rat, strain Wistar, males, in feed, site: liver, lesion: several types, types named in the paper, dosed 52 weeks, study length 52 weeks) of 129 mg/kg/day. For the same molecule, the TD50 runs as follows: (rat, strain Wistar, males, in feed, site: small intestine, lesion: adenocarcinoma, dosed 52 weeks, study length 52 weeks) 60.9 mg/kg/day; (rat, strain Wistar, males, in feed, site: small intestine, lesion: adenocarcinoma, dosed 90 weeks, study length 102 weeks) 79 mg/kg/day; (rat, strain Wistar, males, in feed, site: small intestine, lesion: adenoma, dosed 52 weeks, study length 52 weeks) 129 mg/kg/day; (rat, strain Wistar, males, in feed, site: small intestine, lesion: several types, types named in the paper, dosed 52 weeks, study length 52 weeks) 38.1 mg/kg/day; (rat, strain Wistar, males, in feed, site: tongue, lesion: squamous-cell carcinoma, dosed 78 weeks, study length 78 weeks) 56.1 mg/kg/day.
`COc1nn(CSP(=S)(OC)OC)c(=O)s1`: the carcinogen call (mouse, strain Charles River CD1, females, in feed, site: liver, lesion: hepatocellular adenoma, dosed 100 weeks, study length 100 weeks) is “negative (inactive)”. Moreover, the TD50 is 184 mg/kg/day (inactive) (mouse, strain Charles River CD1, females, in feed, site: liver, lesion: hepatocellular carcinoma, dosed 100 weeks, study length 100 weeks); 16200 mg/kg/day (inactive) (mouse, strain Charles River CD1, females, in feed, site: liver, lesion: several types, types named in the paper, dosed 100 weeks, study length 100 weeks); 17.2 mg/kg/day (mouse, strain Charles River CD1, males, in feed, site: liver, lesion: hepatocellular adenoma, dosed 100 weeks, study length 100 weeks); 21.8 mg/kg/day (mouse, strain Charles River CD1, males, in feed, site: liver, lesion: hepatocellular carcinoma, dosed 100 weeks, study length 100 weeks); 6.04 mg/kg/day (mouse, strain Charles River CD1, males, in feed, site: liver, lesion: several types, types named in the paper, dosed 100 weeks, study length 100 weeks).
Consider `OCl`, for which the carcinogen call (mouse, strain B6C3F1, females, in drinking water, site: any site (literature study), lesion: several types, types named in the paper, dosed 103 weeks, study length 106 weeks) was “negative (inactive)”; the carcinogen call (mouse, strain B6C3F1, females, in drinking water, site: liver, lesion: hepatocellular carcinoma, dosed 103 weeks, study length 106 weeks) is “negative (inactive)”; the carcinogen call (mouse, strain B6C3F1, females, in drinking water, site: liver, lesion: several types, types named in the paper, dosed 103 weeks, study length 106 weeks) is “negative (inactive)”; the carcinogen call (mouse, strain B6C3F1, males, in drinking water, site: liver, lesion: hepatocellular carcinoma, dosed 103 weeks, study length 106 weeks) is “negative (inactive)”; the carcinogen call (rat, strain F344/DuCrj, males, in drinking water, site: liver, lesion: cholangioma, dosed 104 weeks, study length 112 weeks) is “negative (inactive)”; the carcinogen call (rat, strain F344/DuCrj, males, in drinking water, site: liver, lesion: fibrous histiocytoma, dosed 104 weeks, study length 112 weeks) was “negative (inactive)”. For the same molecule, the carcinogen call (rat, strain F344/DuCrj, males, in drinking water, site: liver, lesion: several types, types named in the paper, dosed 104 weeks, study length 112 weeks) was “negative (inactive)”. The TD50 was 22900 mg/kg/day (inactive) (mouse, strain B6C3F1, females, in drinking water, site: lung, lesion: several types, types named in the paper, dosed 103 weeks, study length 106 weeks); 350 mg/kg/day (inactive) (mouse, strain B6C3F1, males, in drinking water, site: any site (literature study), lesion: several types, types named in the paper, dosed 103 weeks, study length 106 weeks); 876 mg/kg/day (inactive) (mouse, strain B6C3F1, males, in drinking water, site: liver, lesion: several types, types named in the paper, dosed 103 weeks, study length 106 weeks); 2040 mg/kg/day (inactive) (mouse, strain B6C3F1, males, in drinking water, site: lung, lesion: several types, types named in the paper, dosed 103 weeks, study length 106 weeks); 6300 mg/kg/day (inactive) (rat, strain F344/DuCrj, females, in drinking water, site: liver, lesion: several types, types named in the paper, dosed 104 weeks, study length 112 weeks).
For the molecule `Cn1nc(CO)nc1NCCCOc1cccc(CN2CCCCC2)c1`, the TD50 (rat, strain Charles River CD (Sprague-Dawley), females, in feed, site: stomach, glandular, fundic region, lesion: carcinoid tumor, malignant, dosed 115 weeks, study length 115 weeks) was 272 mg/kg/day and the TD50 (rat, strain Charles River CD (Sprague-Dawley), males, in feed, site: stomach, glandular, fundic region, lesion: carcinoid tumor, malignant, dosed 115 weeks, study length 115 weeks) is 2010 mg/kg/day.
